This is an account of results in a melting point compilation (Tetko et al.; mined from patent text by program, amines drawn as free bases though some values may be those of a salt).

In the case of `CC(C)(C)c1cc(O)no1`, the melting point fell in the range of 99 to 101 °C.

The compound `N#Cc1cc([N+](=O)[O-])ccc1Oc1ccc(Cl)cc1Cl` gave a melting point of 154 °C.

With `O=C(O)c1cnc2occc2c1`, the melting point is 274 to 275 °C.

As for `CSc1cccc(SC)c1S(N)(=O)=O`, the melting point was in the range of 197 to 199 °C.

`CCCCC=CC(=O)Nc1ccccc1` displayed a melting point of 50 °C.

Take `O=[N+]([O-])c1nccn1CC(O)CN1C2CCCCCCC21` (stereo unspecified): the melting point lay in the range of 120 to 122 °C.

`O=C1c2ccccc2CCC1Cc1ccccc1` (stereo unspecified) came in with a melting point of 50 to 51 °C.

In turn, `COc1cc2c(cc1OC)C(c1c(Cl)cccc1Cl)NC(=O)C2` (stereo unspecified) yielded a melting point of 228 to 229 °C.

The compound `O=C(Cc1ccc(Br)cc1)OCc1ccccc1` registered a melting point of 47.5 to 48 °C.

For `Nc1cc(Oc2ccc3c(C(=O)Nc4ccc(F)c(C(F)(F)F)c4)nccc3c2)ncn1`, the melting point is 219 to 222 °C.

Take `O=C1Nc2ccc(F)c(Cl)c2C(=O)N2CCC[C@@H]12`: the melting point fell in the range of 217 to 219 °C.

The compound `CN(C)C(=O)c1cn(C)c(=O)cc1Nc1ccc(I)cc1F` had a melting point of 106 to 111 °C.

The compound `CCCCOc1cc(C=O)c([N+](=O)[O-])cc1OCc1ccccc1` came in with a melting point of 94 °C.

`C[Si](C)(C)c1cccc2cc(C(=O)Nc3ccc(N4CC(O)C4)nc3)n(Cc3cccc(F)c3)c12` yielded a melting point of 215 to 217 °C.

As to `CC(=O)Nc1nc(-c2ccccc2)c(CCOC(C)=O)c2ncnn12`, the melting point was in the range of 79 to 80 °C.

In the case of `NC(=O)CNC(=O)COc1ccccc1`, the melting point was in the range of 138 to 140 °C.

The compound `CCC(O)(c1ccc(O)cc1)c1cccc(C(F)(F)F)c1` (stereo unspecified) yielded a melting point of 102 to 103 °C.

In turn, `COC(=O)c1cccc2c3nc4ccccc4[nH]c-3nc12` gave a melting point of 251 to 255 °C.

The compound `O=C1c2nccc(Cl)c2C(=O)c2c(-c3ccccc3NC(=O)C(F)(F)F)ccnc21` came in with a melting point of 152 °C.

Compound `NC(=O)N1CCNC1=O` returned a melting point of 200 °C.

In turn, `CC(C)[C@@H]1COC(=O)N1C(=O)[C@@H](CC(=O)OC(C)(C)C)Cc1ccccc1` showed a melting point of 167 to 168 °C.

As to `O=C(CCSC(=O)c1ccccc1)N[C@@H](Cc1c[nH]cn1)C(=O)O`, the melting point was in the range of 170 to 171 °C.

Compound `Cc1c(NC(=O)c2ccc(OCC3CC3)cc2)ccc2cc(CN3CCCC3)cnc12` registered a melting point of 168 °C.

`CC(C)(C)c1cc(OCCCCCCc2nnn[nH]2)cc(C(C)(C)C)c1O` registered a melting point of 128 to 131 °C.

Compound `COc1ccc(-c2coc3cc(OCC(O)CN4CCOCC4)ccc3c2=O)cc1OC` (stereo unspecified) displayed a melting point of 135 to 136 °C.

In the case of `CCCN(c1ccccc1)c1nc(C)nc(SC)c1[N+](=O)[O-]`, the melting point lay within 117 to 119 °C.

The compound `CCCCCCS(=O)(=O)c1ccc(N)cc1` displayed a melting point of 95 to 97 °C.

As for `CN1C(=O)Cc2cc(C(=O)[C@H]3C[C@H]3C(=O)O)ccc21` (relative stereo), the melting point was in the range of 237 to 240 °C.

Turning to `O=C(O)c1ccccc1C(=O)Nc1ccc2c(=O)n3c(nc2c1)C(=Cc1ccccc1)CC3`, the melting point was over 300 °C.

`COC(=O)[C@H](C)NC(=O)CCn1cc(C2=C(c3cn(C)c4ccccc34)C(=O)NC2=O)c2ccccc21` displayed a melting point of 142 to 149 °C.

`CSc1nc(N)nc2c1ncn2C1C=CC(CO)C1` (stereo unspecified) came in with a melting point of 152 to 154 °C.

`O=C(c1ccc(F)cc1)N1CCN(S(=O)(=O)c2ccc(Nc3ccnc4cc(Cl)ccc34)cc2)CC1` registered a melting point of 235 to 237 °C.

In turn, `COc1ccc2cc(-c3ccc(Cl)c(-n4nc(C)c(C)n4)c3)c(=O)oc2c1` yielded a melting point of 180 °C.

As for `C=C(Cl)CSC1=C(O)CC(C)(C)CC1=O`, the melting point lay within 103 to 106 °C.

In the case of `C#CCn1nnnc1SC(c1ccccc1)c1ccccc1`, the melting point amounted to 92 °C.

`O=C1CSCC(=O)C1C(=O)Nc1ccc(Cl)c(C(F)(F)F)c1` displayed a melting point of 108 to 110 °C.

Take `CCOC(=O)OCn1c(SCc2nccc3ccsc23)nc2ccccc21`: the melting point was in the range of 90 to 92 °C.

The compound `O=S(=O)(c1ccc(Cl)cc1)C(CCCCF)c1cc(F)ccc1F` (stereo unspecified) returned a melting point of 77 to 78 °C.

On to `CC(=O)NC1CCN(CCCCl)CC1`, for which the melting point lay in the range of 74 to 77 °C.

Compound `CCCc1c(N)c(C(N)=O)nn1C` yielded a melting point of 170 to 174 °C.

Turning to `N=C1NN(c2ccccc2)CC1CN1CCOCC1` (stereo unspecified), the melting point is 204 to 205 °C.

`N#CC1c2ccccc2CSc2ccccc21` (stereo unspecified) registered a melting point of 128 to 130 °C.

As for `CCCCCCCC[C@@H](O)C(=O)Nc1cccc2nc(SC)ccc12`, the melting point lay within 119 to 120 °C.

Turning to `O=C(CN1C(=O)c2ccccc2C1=O)Nc1cccc(OC(F)(F)F)c1`, the melting point amounted to 170 °C.

For `Cn1c(=O)c2c(nc(Cl)n2Cc2ccc(F)cc2)n(C)c1=O`, the melting point lay in the range of 183 to 184 °C.

Take `Cc1c(-c2ccccc2)c(N2CC(N(C)C)C2)c2oc(C(C)(C)C)nc2c1C#N`: the melting point was 211 to 212 °C.

Compound `OCCON=Cc1ccccn1` yielded a melting point of 45 °C.

`CC(C)(C)C(O)C(C(Sc1ccccc1)c1ccc(F)cc1)n1cncn1` (stereo unspecified) displayed a melting point of 171 °C.

The compound `Clc1nc(-c2cccnc2)sc1-c1cccnc1` displayed a melting point of 145 to 147 °C.

The compound `CCOC(=O)c1cn(CC)c2cc(Cl)c(Br)cc2c1=O` gave a melting point of 166 °C.

In the case of `COc1cc(Cl)c(N=C2NCCN2OCc2ccccc2)c(Cl)c1`, the melting point was in the range of 90 to 92 °C.

Take `C[C@]12CCC(=O)C=C1CC[C@@H]2c1cn[nH]n1`: the melting point was 126 to 129 °C.

`Cc1cc2nc(NC(=O)C(C)(C)C)[nH]c(=O)c2[nH]1` came in with a melting point of 156 to 157 °C.

In turn, `CCN1CCCC(NC(=O)c2cc(C)on2)C1` (stereo unspecified) registered a melting point of 84 to 86 °C.

Take `CC(C)CCNC(=O)c1ccccc1-c1ccccc1CNC(=O)OCc1ccccc1`: the melting point stood at 112 °C.

As for `COc1ccc(-c2nc(-c3ccn4c3CCC4)[nH]c2-c2ccc(OC)cc2)cc1`, the melting point came out at 238 °C.

`CCN(CCOC)C(=O)c1cc(-c2ccccc2)c(=O)n2c1-c1cc(Cl)ccc1CN2` had a melting point of 184 to 185 °C.

`CN(C(=O)c1ccc2nonc2c1)[C@H]1CC[C@H](N)CC1` registered a melting point of 145 to 146 °C.

Compound `O=[N+]([O-])c1cccc(-c2csc(NS(=O)(=O)Cc3ccccc3)n2)c1` displayed a melting point of 219 to 221 °C.

`CC(C)c1ccc(N(Cc2ccc(OCC(F)(F)F)cc2)C(=O)Nc2c(C(C)C)cccc2C(C)C)cc1` had a melting point of 138 °C.

`CCCOc1ccc2c(c1)C(c1ccccc1OCCC)C(C(=O)O)C2c1ccc2c(c1)OCO2` (stereo unspecified) gave a melting point of 179 to 180 °C.

Compound `Cc1cc(C#N)cc(C(=O)c2c(C(C)C)c(=O)[nH]c(=O)n2CC2(CC(N)=O)CC2)c1` yielded a melting point of 283 to 285 °C.

For the compound `Cc1ccccc1CCC(=NO)C(=O)C(F)(F)F`, the melting point lay within 80 to 81 °C.

`COC(=O)CCC(=O)c1ccc(OCc2ccsc2)cc1O` came in with a melting point of 100 to 102 °C.

Compound `COC(=O)c1ccc2c(c1)C(=O)C1(CC1)O2` yielded a melting point of 89 to 91 °C.

As for `Cc1oc2ccccc2c1C(=O)NCc1ccc2cc(O)ccc2c1`, the melting point is 195 to 198 °C.

`CCNC(=O)c1ccsc1` displayed a melting point of 115 to 117 °C.

Consider `CC(=O)OCC1OC(n2cc(C(Br)=CI)c(=O)[nH]c2=O)CC1OC(C)=O` (stereo unspecified), for which the melting point lay within 82 to 84 °C.

In turn, `CCCCN(Cc1ccc(-c2ccccc2-c2nnn[nH]2)cc1)c1nc(SC)ncc1C(=O)OCC` yielded a melting point of 161 to 163 °C.

As for `CCc1nc2c(C)nn(C)c2c2nc(C)cn12`, the melting point was in the range of 182 to 183 °C.

In turn, `CCCOC(=O)OC1CSC(Oc2ccc3c(C)cc(=O)oc3c2)C(OC(=O)OCCC)C1OC(=O)OCCC` (stereo unspecified) yielded a melting point of 134 °C.

The compound `CC1(COc2c(-c3ccc(S(C)(=O)=O)cc3)cnn(CC(F)(F)F)c2=O)CC1` displayed a melting point of 98 to 99 °C.

`c1ccc(C2CC(n3ccnc3)c3ccccc3N2)cc1` (stereo unspecified) gave a melting point of 170 to 172 °C.

For the compound `CC(Cc1c[nH]c2ccccc12)(NC(=O)OC1C2CC3CC(C2)CC1C3)C(=O)NC(CNC(=O)CCC(=O)O)Cc1ccccc1` (stereo unspecified), the melting point was in the range of 110 to 114 °C.

With `O=C(O)Cc1ccc2c(c1)C(=O)Cc1ccccc1S2`, the melting point fell in the range of 166 to 167 °C.

Regarding `CCOC(=O)NC1(c2cccs2)CCC2(CC1)OCCO2`, the melting point lay within 113 to 117 °C.

Take `O=C1CC(NCc2ccccc2)C(=O)N1Cc1ccccc1` (stereo unspecified): the melting point lay in the range of 60 to 63 °C.

`CCOc1nc(C(=O)O)c2c(n1)nc(OCC)n2Cc1ccc(-c2ccccc2-c2nnn[nH]2)cc1` yielded a melting point of 140 to 141 °C.

Compound `CCCCCCCC(=O)OC(C)c1ccc(-c2ccc(OCc3ccccc3)cc2)cc1` (single isomer, unassigned; (+)) displayed a melting point of 91 to 92 °C.

In turn, `COc1ccc(N2CCN(c3c(C)c(C)c4c(c3C)C(N3CCOCC3)C(C)(C)O4)CC2)cc1` (stereo unspecified) returned a melting point of 181 to 182 °C.

Consider `N=C(N)Nc1cc(C(=O)O)ccc1N1C(=O)CCC1CO` (stereo unspecified), for which the melting point is 253 to 257 °C.

Consider `CN1CCN(C2=Cc3cc(Cl)ccc3Oc3ccccc32)CC1`, for which the melting point is 119 to 121 °C.

`CCOc1c(Br)cc(C(C)(C)C)cc1C(C)(C)C` yielded a melting point of 55 to 56 °C.

With `CS(=O)c1nc(-c2cc(C(C)(C)C)c(O)c(C(C)(C)C)c2)c[nH]1` (stereo unspecified), the melting point was in the range of 106 to 108 °C.

On to `COCc1ncc(-n2nc(C)cc2C)nc1Nc1ccc(Cl)cc1`, for which the melting point is 105 to 108 °C.

With `O=C(O)CCC(=O)c1ccc(-c2ccc(Cl)cc2)cc1`, the melting point fell in the range of 184 to 185 °C.

`CCOC(=O)C1=C(C)NC(c2cscn2)=NC1c1cccc(F)c1` (stereo unspecified) registered a melting point of 118 to 120 °C.

Turning to `CC(C)N1CCC(CN2CCN(CCCN3CCCCC3)C2=C(C#N)C#N)CC1`, the melting point lay in the range of 115 to 117 °C.

`Cc1[nH]n(C2CCCCC2)c2nc(-c3ccncc3)nc(=O)c1-2` returned a melting point of 292 to 293 °C.

The compound `c1ccc(COc2nn3c(-c4cc(-c5cccs5)on4)nnc3c3ccccc23)nc1` showed a melting point of 213 to 215 °C.

Compound `CC(C)C(C)(C(=O)NCCc1ccccn1)C(C)C` came in with a melting point of 60 to 61 °C.
